This is an account of results in patent publication US11591355B2 (Peloton Therapeutics, Inc., priority 2017, dated 2023).

SMILES strings stand for the structures.

One test addresses T1, Human CD73 (Homo sapiens, UniProt P21589).
T1 construct: purchased R&D Systems; host or cells: CHO cells
T1 sequence (P21589 27-549): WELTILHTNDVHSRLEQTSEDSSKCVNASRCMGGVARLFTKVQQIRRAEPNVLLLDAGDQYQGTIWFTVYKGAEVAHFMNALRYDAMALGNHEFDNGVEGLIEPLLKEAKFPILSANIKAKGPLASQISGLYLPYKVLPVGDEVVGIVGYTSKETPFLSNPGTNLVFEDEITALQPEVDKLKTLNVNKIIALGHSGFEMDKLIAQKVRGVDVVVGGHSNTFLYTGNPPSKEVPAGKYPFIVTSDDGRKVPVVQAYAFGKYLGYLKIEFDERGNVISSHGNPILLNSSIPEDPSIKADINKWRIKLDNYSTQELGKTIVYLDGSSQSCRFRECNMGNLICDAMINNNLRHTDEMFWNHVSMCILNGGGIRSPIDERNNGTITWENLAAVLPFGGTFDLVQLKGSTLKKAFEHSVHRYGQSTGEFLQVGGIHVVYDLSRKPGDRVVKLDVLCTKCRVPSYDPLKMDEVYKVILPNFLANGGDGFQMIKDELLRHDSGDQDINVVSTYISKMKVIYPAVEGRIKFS
Kind of test: CD73 Enzyme Assay. It counts as biochemical. The following applies: 0.25 nM hCD73, 25 μM AMP, kinetic read at 360 nm; read-out: CD73 Enzyme Assay IC50.
For orientation: IC50 means the concentration that gives 50% inhibition. As for `O=P(O)(O)COC[C@H]1O[C@@H](n2cnc3c(NCc4ccccc4)nc(Cc4ccccc4)nc32)[C@H](O)[C@@H]1O` [Compound 22, [(2R,3S,4R,5R)-5-[2-benzyl-6-(benzyl-amino)purin-9-yl]-3,4-dihydroxy-tetrahydro-furan-2-yl]methoxy-methylphosphonic acid], the IC50 was in the range of 0.1 to 1 µM.
Regarding `O=P(O)(O)COC[C@H]1O[C@@H](n2cnc3c(NC4(c5ccccc5)CC4)ncnc32)[C@H](O)[C@@H]1O` [Compound 23], the IC50 is greater than 1 µM.
On the same count and under the same terms, the same measure for `O=P(O)(O)COC[C@H]1O[C@@H](n2cnc3c(NC4CC4)ncnc32)[C@H](O)[C@@H]1O` [Compound 24, [(2R,3S,4R,5R)-5-[6-(cyclopropylamino)-purin-9-yl]-3,4-dihydroxy-tetrahydro-furan-2-yl]methoxy-methylphosphonic acid]: greater than 1 µM; for `NCCNc1ncnc2c1ncn2[C@@H]1O[C@H](COCP(=O)(O)O)[C@@H](O)[C@H]1O` [Compound 25, [(2R,3S,4R,5R)-5-[6-(2-aminoethylamino)-purin-9-yl]-3,4-dihydroxy-tetrahydro-furan-2-yl]methoxy-methylphosphonic acid]: greater than 1 µM; for `O=P(O)(O)COC[C@H]1O[C@@H](n2cnc3c(NCCCO)ncnc32)[C@H](O)[C@@H]1O` [Compound 26, [(2R,3S,4R,5R)-3,4-dihydroxy-5-[6-(3-hydroxypropylamino)-purin-9-yl]tetrahydro-furan-2-yl]methoxy-methylphosphonic acid]: greater than 1 µM.
On the same count and under the same terms, the same measure for `O=P(O)(O)COC[C@H]1O[C@@H](n2cnc3c(NCc4cccnc4)ncnc32)[C@H](O)[C@@H]1O` [Compound 27, [(2R,3S,4R,5R)-3,4-dihydroxy-5-[6-(3-pyridylmethylamino)-purin-9-yl]tetrahydro-furan-2-yl]methoxy-methylphosphonic acid]: greater than 1 µM; for `O=P(O)(O)COC[C@H]1O[C@@H](n2cnc3c(NCc4ccncc4)ncnc32)[C@H](O)[C@@H]1O` [Compound 28, [(2R,3S,4R,5R)-3,4-dihydroxy-5-[6-(4-pyridylmethylamino)-purin-9-yl]tetrahydro-furan-2-yl]methoxy-methylphosphonic acid]: greater than 1 µM; for `O=P(O)(O)COC[C@H]1O[C@@H](n2cnc3c(NCCc4ccccc4)ncnc32)[C@H](O)[C@@H]1O` [Compound 29, [(2R,3S,4R,5R)-3,4-dihydroxy-5-[6-(2-phenylethylamino)-purin-9-yl]tetrahydro-furan-2-yl]methoxy-methylphosphonic acid]: 0.1 to 1 µM.
Consider `O=P(O)(O)COC[C@H]1O[C@@H](n2cnc3c(Nc4ccccc4)ncnc32)[C@H](O)[C@@H]1O` [Compound 30, [(2R,3S,4R,5R)-5-(6-anilinopurin-9-yl)-3,4-dihydroxy-tetrahydro-furan-2-yl]methoxy-methylphosphonic acid], for which the IC50 is greater than 1 µM.
`CC(C)N(C)c1ncnc2c1ncn2[C@@H]1O[C@H](COCP(=O)(O)O)[C@@H](O)[C@H]1O` [Compound 31]: the IC50 was greater than 1 µM.
On the same count and under the same terms, the same measure for `CC(C)(C)Nc1ncnc2c1ncn2[C@@H]1O[C@H](COCP(=O)(O)O)[C@@H](O)[C@H]1O` [Compound 33, [(2R,3S,4R,5R)-5-[6-(tert-butylamino)purin-9-yl]-3,4-dihydroxy-tetrahydrofuran-2-yl]-methoxymethylphos-phonic acid]: greater than 1 µM; for `O=P(O)(O)COC[C@H]1O[C@@H](n2cnc3c(NC4CCC4)ncnc32)[C@H](O)[C@@H]1O` [Compound 34, [(2R,3S,4R,5R)-5-[6-(cyclobutylamino)-purin-9-yl]-3,4-dihydroxy-tetrahydro-furan-2-yl]methoxy-methylphosphonic acid]: 0.1 to 1 µM.
Still for that read-out and setting: in the case of `O=P(O)(O)COC[C@H]1O[C@@H](n2cnc3c(NC4CCCCC4)ncnc32)[C@H](O)[C@@H]1O` [Compound 35, [(2R,3S,4R,5R)-5-[6-(cyclohexylamino)-purin-9-yl]-3,4-dihydroxy-tetrahydro-furan-2-yl]methoxy-methylphosphonic acid] it was 0.1 to 1 µM; in that of `O=P(O)(O)COC[C@H]1O[C@@H](n2cnc3c2ncn2cnnc32)[C@H](O)[C@@H]1O` [Compound 37], greater than 1 µM.
As to `O=P(O)(O)COC[C@H]1O[C@@H](n2cnc3c2ncn2ccnc32)[C@H](O)[C@@H]1O` [Compound 38], the IC50 was greater than 1 µM.
On to `O=P(O)(O)COC[C@H]1O[C@@H](n2cnc3c(NCc4ccccc4)nc(C4CC4)nc32)[C@H](O)[C@@H]1O` [Compound 39, [(2R,3S,4R,5R)-5-[6-(benzylamino)-2-cyclopropyl-purin-9-yl]-3,4-dihydroxy-tetrahydrofuran-2-yl]-methoxymethyl phos-phonic acid], for which the IC50 was greater than 1 µM.
On the same count and under the same terms, in the case of `C=Cc1nc(NC(C)C)c2ncn([C@@H]3O[C@H](COCP(=O)(O)O)[C@@H](O)[C@H]3O)c2n1` [Compound 40, [(2R,3S,4R,5R)-3,4-dihydroxy-5-[6-(iso-propylamino)-2-vinyl-purin-9-yl]tetrahydro-furan-2-yl]methoxy-methylphosphonic acid] it was 0.1 to 1 µM; in that of `CCc1nc(NC(C)C)c2ncn([C@@H]3O[C@H](COCP(=O)(O)O)[C@@H](O)[C@H]3O)c2n1` [Compound 41, [(2R,3S,4R,5R)-5-[2-ethyl-6-(isopropyl-amino)purin-9-yl]-3,4-dihydroxy-tetrahydro-furan-2-yl]methoxy-methylphosphonic acid], greater than 1 µM.
Regarding `O=c1c2ncn([C@@H]3O[C@H](COCP(=O)(O)O)[C@@H](O)[C@H]3O)c2ncn1Cc1ccccc1` [Compound 42, [(2R,3S,4R,5R)-5-(1-benzyl-6-oxo-purin-9-yl)-3,4-dihydroxy-tetrahydrofuran-2-yl]-methoxymethylphos-phonic acid], the IC50 was greater than 1 µM.
For `CC(C)Oc1ncnc2c1ncn2[C@@H]1O[C@H](COCP(=O)(O)O)[C@@H](O)[C@H]1O` [Compound 44, [(2R,3S,4R,5R)-3,4-dihydroxy-5-(6-isopropoxypurin-9-yl)tetrahydrofuran-2-yl]methoxymethylphosphonic acid], the IC50 is greater than 1 µM.
As to `O=P(O)(O)COC[C@H]1O[C@@H](n2cnc3c(N4CCCC4c4ccccc4)ncnc32)[C@H](O)[C@@H]1O` (stereo partly drawn) [Compound 45, [(2R,3S,4R,5R)-3,4-dihydroxy-5-[6-(2-phenylpyrrolidin-1-yl)-purin-9-yl]tetrahydro-furan-2-yl]methoxy-methylphosphonic acid], the IC50 was 0.1 to 1 µM.
Regarding `N#Cc1ncnc2c1ncn2[C@@H]1O[C@H](COCP(=O)(O)O)[C@@H](O)[C@H]1O` [Compound 47, [(2R,3S,4R,5R)-5-(6-cyanopurin-9-yl)-3,4-dihydroxy-tetrahydro-furan-2-yl]methoxy-methylphosphonic acid], the IC50 is greater than 1 µM.
Turning to `O=P(O)(O)COC[C@H]1O[C@@H](n2cnc3c(O)ncnc32)[C@H](O)[C@@H]1O` [Compound 48], the IC50 was greater than 1 µM.
In the case of `C[C@H](Nc1ncnc2c1ncn2[C@@H]1O[C@H](COCP(=O)(O)O)[C@@H](O)[C@H]1O)c1cccc(F)c1` [Compound 50, [(2R,3S,4R,5R)-5-[6-[[(1S)-1-(3-fluoro-phenyl)ethyl]amino]-purin-9-yl]-3,4-dihydroxy-tetrahydro-furan-2-yl]methoxy-methylphosphonic acid], the IC50 was in the range of 0.1 to 1 µM.
As for `C[C@H](Nc1ncnc2c1ncn2[C@@H]1O[C@H](COCP(=O)(O)O)[C@@H](O)[C@H]1O)c1ccccc1F` [Compound 51, [(2R,3S,4R,5R)-5-[6-[[(1S)-1-(2-fluoro-phenyl)ethyl]amino]-purin-9-yl]-3,4-dihydroxy-tetrahydro-furan-2-yl]methoxy-methylphosphonic acid], the IC50 lay within 0.1 to 1 µM.
Consider `O=P(O)(O)COC[C@H]1O[C@@H](n2cnc3c(-c4ccccc4F)ncnc32)[C@H](O)[C@@H]1O` [Compound 53, [(2R,3S,4R,5R)-5-[6-(2-fluorophenyl)purin-9-yl]-3,4-dihydroxy-tetrahydrofuran-2-yl]methoxymethyl-phosphonic acid], for which the IC50 is greater than 1 µM.
On the same count and under the same terms, the same measure for `N#Cc1cccc(CNc2ncnc3c2ncn3[C@@H]2O[C@H](COCP(=O)(O)O)[C@@H](O)[C@H]2O)c1` [Compound 58, [(2R,3S,4R,5R)-5-[6-[(3-cyanophenyl)-methylamino]purin-9-yl]-3,4-dihydroxy-tetrahydrofuran-2-yl]-methoxymethylphos-phonic acid]: greater than 1 µM; for `NS(=O)(=O)c1cccc(CNc2ncnc3c2ncn3[C@@H]2O[C@H](COCP(=O)(O)O)[C@@H](O)[C@H]2O)c1` [Compound 63]: greater than 1 µM; for `O=P(O)(O)COC[C@H]1O[C@@H](n2cnc3c(NCc4cccc(CO)c4)ncnc32)[C@H](O)[C@@H]1O` [Compound 64, [(2R,3S,4R,5R)-3,4-dihydroxy-5-[6-[[3-(hydroxymethyl)-phenyl]methylamino]-purin-9-yl]tetrahydro-furan-2-yl]methoxy-methylphosphonic acid]: greater than 1 µM.
Turning to `NC(=O)c1cccc(CNc2ncnc3c2ncn3[C@@H]2O[C@H](COCP(=O)(O)O)[C@@H](O)[C@H]2O)c1` [Compound 65, [(2R,3S,4R,5R)-5-[6-[(3-carbamoylphenyl)-methylamino]purin-9-yl]-3,4-dihydroxy-tetrahydrofuran-2-yl]-methoxymethylphos-phonic acid], the IC50 was greater than 1 µM.

Still in this test, the particulars now being: read-out: CD73 Enzyme Assay IC50.
For `NS(=O)(=O)c1ccc(CNc2ncnc3c2ncn3[C@@H]2O[C@H](COCP(=O)(O)O)[C@@H](O)[C@H]2O)cc1` [Compound 59], the IC50 is greater than 1 µM.
